According to patent US20240279283A1, “CYCLIC PEPTIDE ANTIBIOTICS” (priority 2021, published 2024):
Bridge positions count the residues as written; N and C are the ends. Square brackets hold non-standard residues; d marks the D form. Peptide text beside a SMILES is read from it. Phe(4-Cl) = N[C@@H](Cc1ccc(Cl)cc1)C(=O)O; Gly(Nα-CH2CH2CONH2) = NC(=O)CCNCC(=O)O; 1Nal = N[C@@H](Cc1cccc2ccccc12)C(=O)O; d1Nal = N[C@H](Cc1cccc2ccccc12)C(=O)O; dHis(π-Me) = Cn1cncc1C[C@@H](N)C(=O)O; His(π-Me) = Cn1cncc1C[C@H](N)C(=O)O; NMeY = CN[C@@H](Cc1ccc(O)cc1)C(=O)O; dNMeY = CN[C@H](Cc1ccc(O)cc1)C(=O)O; Gly(N(CH2)3NH2) = NCCCNCC(=O)O; Nle = CCCC[C@H](N)C(=O)O; dAbu = CC[C@@H](N)C(=O)O; Abu = CC[C@H](N)C(=O)O

Tests used:
Format in all cases: cell-based
Conditions in all cases: LB broth, 5×10^5 CFU/ml, 37° C., 18 hours, scored by eye
E. coli 25922 IMP = test: Minimum Inhibitory Concentration (MIC) determination, E. coli 25922 IMP
Outline: (§1)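 Peptides, diluted two-fold in LB broth from 10 mM DMSO stocks, were inoculated with 5×10^5 CFU/ml of each strain. Incubation was 18 h at 37 °C without shaking. MIC is the lowest concentration preventing visible growth, scored by eye.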

K. pneumoniae ATCC43816 = test: Minimum Inhibitory Concentration (MIC) determination, K. pneumoniae ATCC43816; design: unit not given here
Experimental: (§2) MICs were determined by performing two-fold serial dilutions of peptides in LB broth to a final volume of 0.1 ml in round-bottom 96-well assay plates (Corning Life Sciences No 3788). Peptides were initially resuspended in 100% DMSO to 10 mM and subsequently diluted in LB medium to the appropriate concentration. Each well was inoculated with 5×10^5 CFU/ml of the screening stain and incubated at 37° C. without agitation for 18 hours. Plates were scored by eye, and the lowest compound concentration preventing visible growth was determined to be the MIC.

E. cloacae ATCC222 = test: Minimum Inhibitory Concentration (MIC) determination, E. cloacae ATCC222; design: unit not given here
Experimental: as §2

E. coli BW25113 = test: Minimum Inhibitory Concentration (MIC) determination, E. coli BW25113; design: unit not given here
Outline: as §1

E. coli 25922 = test: Minimum Inhibitory Concentration (MIC) determination, E. coli 25922; design: unit not given here
Experimental: as §2

SMILES | MIC E. coli 25922 IMP WUXI::MIC (E. coli 25922 IMP) | MIC K. pneumoniae ATCC43816 Wuxi::MIC (K. pneumoniae ATCC43816) | MIC E. cloacae ATCC222 WUXI::MIC (E. cloacae ATCC222) | MIC E. coli BW25113 WUXI::MIC (E. coli BW25113) | MIC E. coli 25922 WUXI::MIC (E. coli 25922)
CC[C@@H]1NC(=O)[C@H](Cc2ccccc2)NC(=O)CSC[C@@H](C(=O)NCC(N)=O)NC(=O)[C@H](Cc2cncn2C)NC(=O)[C@H](CCCNC(=N)N)NC(=O)[C@H](Cc2cnc[nH]2)NC(=O)[C@H](Cc2ccc(O)cc2)N(C)C(=O)[C@H](CCCNC(=N)N)NC(=O)[C@H](CO)NC(=O)CNC(=O)[C@H](C)NC(=O)[C@H](Cc2cccc3ccccc23)NC1=O (stereo in doubt) [Compound 35] | 3.1 | 100 | 100 | 100 | 100
CC[C@@H]1NC(=O)[C@H](Cc2ccccc2)NC(=O)CSC[C@@H](C(=O)NCC(N)=O)NC(=O)[C@H](Cc2cncn2C)NC(=O)[C@H](C)NC(=O)[C@H](Cc2c[nH]cn2)NC(=O)[C@H](Cc2ccc(O)cc2)N(C)C(=O)[C@H](CCCNC(=N)N)NC(=O)[C@H](CO)NC(=O)CNC(=O)[C@H](Cc2c[nH]cn2)NC(=O)[C@H](Cc2cccc3ccccc23)NC1=O (stereo in doubt) [Compound 38] | 0.063 | 100 | 13 | 100 | 100
CC[C@@H]1NC(=O)[C@H](Cc2ccc(O)cc2)NC(=O)CSC[C@@H](C(=O)NCC(N)=O)NC(=O)[C@H](Cc2cncn2C)NC(=O)[C@H](CCCNC(=N)N)NC(=O)[C@H](Cc2c[nH]cn2)NC(=O)[C@H](Cc2ccc(O)cc2)N(C)C(=O)[C@H](CCCNC(=N)N)NC(=O)[C@H](CO)NC(=O)CNC(=O)[C@H](Cc2c[nH]cn2)NC(=O)[C@H](Cc2cccc3ccccc23)NC1=O [Compound 19, (3R,6S,9S,12S,15S,18S,21S,27S,30S, 33S,36S)-N-(2-amino-2-oxo-ethyl)-33-ethyl-9,18-bis(3-guanidinopropyl)-21-(hydroxymethyl)-15,36-bis[(4-hydroxyphenyl)methyl]-12,27-bis(1H-imidazol-4-ylmethyl)-16-methyl-6-[(3-methylimidazol-4-yl)methyl]-30-(1-naphthylmethyl)-5,8,11,14,17,20,23,26,29,32,35,38-dodecaoxo-1-thia-4,7,10,13,16,19,22,25,28,31,34,37-dodecazacyclononatriacontane-3-carboxamide] ({CH2CO}-Y[Abu][1Nal]HGSR[NMeY]HR[His(π-Me)]CG-NH2; thioether N-12) | 0.0039 | 6.3 | 0.39 | 6.3 | 3.1
CCCC[C@@H]1NC(=O)CSC[C@@H](C(=O)NCC(N)=O)NC(=O)[C@H](Cc2cncn2C)NC(=O)[C@H](CCCNC(=N)N)NC(=O)[C@H](Cc2c[nH]cn2)NC(=O)[C@H](Cc2ccc(O)cc2)N(C)C(=O)[C@H](CCCNC(=N)N)NC(=O)[C@H](CO)NC(=O)CNC(=O)[C@H](Cc2c[nH]cn2)NC(=O)[C@H](Cc2cccc3ccccc23)NC(=O)[C@H](CC)NC1=O [Compound 20] ({CH2CO}-[Nle][Abu][1Nal]HGSR[NMeY]HR[His(π-Me)]CG-NH2; thioether N-12) | 0.0078 | 25 | 1.6 | 25 | 13
CC[C@@H]1NC(=O)[C@H](CO)NC(=O)CSC[C@@H](C(=O)NCC(N)=O)NC(=O)[C@H](Cc2cncn2C)NC(=O)[C@H](CCCNC(=N)N)NC(=O)[C@H](Cc2c[nH]cn2)NC(=O)[C@H](Cc2ccc(O)cc2)N(C)C(=O)[C@H](CCCNC(=N)N)NC(=O)[C@H](CO)NC(=O)CNC(=O)[C@H](Cc2c[nH]cn2)NC(=O)[C@H](Cc2cccc3ccccc23)NC1=O [Compound 21, (3R,6S,9S,12S,15S,18S,21S,27S,30S, 33S,36S)-N-(2-amino-2-oxo-ethyl)-33-ethyl-9,18-bis(3-guanidinopropyl)-21,36-bis(hydroxymethyl)-15-[(4-hydroxyphenyl)methyl]-12,27-bis(1H-imidazol-4-ylmethyl)-16-methyl-6-[(3-methylimidazol-4-yl)methyl]-30-(1-naphthylmethyl)-5,8,11,14,17,20,23,26,29,32,35,38-dodecaoxo-1-thia-4,7,10,13,16,19,22,25,28,31,34,37-dodecazacyclononatriacontane-3-carboxamide] ({CH2CO}-S[Abu][1Nal]HGSR[NMeY]HR[His(π-Me)]CG-NH2; thioether N-12) | 0.063 | 25 | 3.1 | 50 | 50
CC[C@@H]1NC(=O)[C@H](Cc2ccc(Cl)cc2)NC(=O)CSC[C@@H](C(=O)NCC(N)=O)NC(=O)[C@H](Cc2cncn2C)NC(=O)[C@H](CCCNC(=N)N)NC(=O)[C@H](Cc2c[nH]cn2)NC(=O)[C@H](Cc2ccc(O)cc2)N(C)C(=O)[C@H](CCCNC(=N)N)NC(=O)[C@H](CO)NC(=O)CNC(=O)[C@H](Cc2c[nH]cn2)NC(=O)[C@H](Cc2cccc3ccccc23)NC1=O [Compound 22] ({CH2CO}-[Phe(4-Cl)][Abu][1Nal]HGSR[NMeY]HR[His(π-Me)]CG-NH2; thioether N-12) | 0.002 | 13 | 0.39 | 25 | 6.3
CC[C@@H]1NC(=O)[C@H](Cc2ccccc2)NC(=O)CSC[C@@H](C(=O)NCC(N)=O)NC(=O)[C@H](Cc2cncn2C)NC(=O)[C@H](CCCNC(=N)N)NC(=O)[C@H](Cc2c[nH]cn2)NC(=O)[C@H](Cc2ccc(O)cc2)N(C)C(=O)[C@H](CCCNC(=N)N)NC(=O)[C@H](CO)NC(=O)[C@@H](C)NC(=O)[C@H](Cc2c[nH]cn2)NC(=O)[C@H](Cc2cccc3ccccc23)NC1=O [Compound 26] ({CH2CO}-F[Abu][1Nal]H[dA]SR[NMeY]HR[His(π-Me)]CG-NH2; thioether N-12) | 0.0039 | 25 | 0.78 | 6.3 | 3.1
CC[C@@H]1NC(=O)[C@H](Cc2ccccc2)NC(=O)CSC[C@@H](C(=O)NCC(N)=O)NC(=O)[C@H](Cc2cncn2C)NC(=O)[C@H](CCCNC(=N)N)NC(=O)[C@H](Cc2c[nH]cn2)NC(=O)[C@H](Cc2ccc(O)cc2)N(C)C(=O)[C@H](CCCNC(=N)N)NC(=O)[C@H](CO)NC(=O)[C@@H](CO)NC(=O)[C@H](Cc2c[nH]cn2)NC(=O)[C@H](Cc2cccc3ccccc23)NC1=O [Compound 27] ({CH2CO}-F[Abu][1Nal]H[dS]SR[NMeY]HR[His(π-Me)]CG-NH2; thioether N-12) | 0.002 | 13 | 0.39 | 13 | 3.1
CC[C@H]1NC(=O)[C@@H](Cc2ccccc2)NC(=O)CSC[C@H](C(=O)NCC(N)=O)NC(=O)[C@@H](Cc2cncn2C)NC(=O)[C@@H](CCCNC(=N)N)NC(=O)[C@@H](Cc2c[nH]cn2)NC(=O)[C@@H](Cc2ccc(O)cc2)N(C)C(=O)[C@@H](CCCNC(=N)N)NC(=O)[C@@H](CO)NC(=O)[C@@H](CCCNC(=N)N)NC(=O)[C@@H](Cc2c[nH]cn2)NC(=O)[C@@H](Cc2cccc3ccccc23)NC1=O [Compound 28] ({CH2CO}-[dF][dAbu][d1Nal][dH][dR][dS][dR][dNMeY][dH][dR][dHis(π-Me)][dC]G-NH2; thioether N-12) | 0.002 | 3.1 | 0.2 | 6.3 | 3.1
CC[C@@H]1NC(=O)[C@H](Cc2ccccc2)NC(=O)CSC[C@@H](C(=O)NCC(N)=O)NC(=O)[C@H](Cc2cncn2C)NC(=O)[C@H](CCCNC(=N)N)NC(=O)[C@H](Cc2c[nH]cn2)NC(=O)[C@H](Cc2ccc(O)cc2)N(C)C(=O)[C@H](CCCNC(=N)N)NC(=O)[C@H](CO)NC(=O)CN(CCCN)C(=O)[C@H](Cc2c[nH]cn2)NC(=O)[C@H](Cc2cccc3ccccc23)NC1=O [Compound 29] ({CH2CO}-F[Abu][1Nal]H[Gly(N(CH2)3NH2)]SR[NMeY]HR[His(π-Me)]CG-NH2; thioether N-12) | 0.001 | 3.1 | 0.1 | 6.3 | 1.6
CC[C@@H]1NC(=O)[C@H](Cc2ccccc2)NC(=O)CSC[C@@H](C(=O)NCC(N)=O)NC(=O)[C@H](Cc2cncn2C)NC(=O)[C@H](CCCNC(=N)N)NC(=O)[C@H](Cc2c[nH]cn2)NC(=O)[C@H](Cc2ccc(O)cc2)N(C)C(=O)[C@H](CCCNC(=N)N)NC(=O)[C@H](CO)NC(=O)CN(CCC(N)=O)C(=O)[C@H](Cc2c[nH]cn2)NC(=O)[C@H](Cc2cccc3ccccc23)NC1=O [Compound 30] ({CH2CO}-F[Abu][1Nal]H[Gly(Nα-CH2CH2CONH2)]SR[NMeY]HR[His(π-Me)]CG-NH2; thioether N-12) | 0.016 | 100 | 1.6 | 50 | 25
